Consider 18 compounds from patent US12371428B2 (Exelixis, Inc., priority 2019, dated 2025).

Some results are limits rather than exact numbers.

Test [1] deals with Human MET (residues 956-1390) (Homo sapiens (Human), UniProt P08581). Kind of test: Human Met kinase assay, HTRF KinEase (Example D-2). Format: biochemical. Conditions: protocol of Example D-2 (other compounds); read-out: c-Met IC50. The gist of the method: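 MET kinase domain (956-1390), 0.1 ng/well, in buffer with 5 mM MgCl2, 1 mM DTT and 1 mM MnCl2, phosphorylated a biotinylated peptide at ATP Km for 40 min at RT; 10 concentrations, 3% DMSO final. EDTA-stopped HTRF read after 60 min; IC50 from a 4-parameter logistic fit.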
Chain of Human MET (residues 956-1390) (P08581 956-1390): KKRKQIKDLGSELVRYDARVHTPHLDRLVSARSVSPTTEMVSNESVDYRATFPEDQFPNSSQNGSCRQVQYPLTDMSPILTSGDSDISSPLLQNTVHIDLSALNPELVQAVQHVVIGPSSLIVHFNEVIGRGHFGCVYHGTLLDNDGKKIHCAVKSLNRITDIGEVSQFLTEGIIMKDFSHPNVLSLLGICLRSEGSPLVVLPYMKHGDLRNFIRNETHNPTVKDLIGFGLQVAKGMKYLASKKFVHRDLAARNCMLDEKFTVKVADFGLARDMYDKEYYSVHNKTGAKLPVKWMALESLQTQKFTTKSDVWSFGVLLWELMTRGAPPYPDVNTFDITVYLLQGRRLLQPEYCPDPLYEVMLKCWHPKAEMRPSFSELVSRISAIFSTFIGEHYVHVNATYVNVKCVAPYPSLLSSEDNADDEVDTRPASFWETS
For orientation: Time-resolved FRET reads energy transfer from a long-lived donor to a nearby acceptor.

Test [2] deals with Human MER (residues 528-999) (Homo sapiens (Human), UniProt Q12866). Description: Human Mer kinase assay, HTRF KinEase (Example C-2). Format: biochemical. Conditions: protocol of Example C-2 (other compounds). The gist of the method:
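Recombinant MER 528-999 (1 ng/well) in buffer with 5 mM MgCl2 and 1 mM DTT was reacted with biotinylated peptide and ATP at Km (40 μM) for 60 min at room temperature. EDTA stop with SA-XL665 and Eu3+ TK antibody, then 665/620 nm HTRF read; IC50 from 4-parameter fit.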

In test [3] the target is Human KDR (residues 790-1356) (Homo sapiens (Human), UniProt P35968). Kind of test: Human KDR kinase assay, HTRF KinEase (Example B-2). Format: biochemical. The following applies: protocol of Example B-2 (other compounds). The gist of the method: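 Ten compound concentrations (3% DMSO final) were pre-plated, then KDR (790-1356) with biotinylated peptide in Mg/Mn/DTT buffer was added; ATP at Km (4.0 μM) started a 40 min room-temperature reaction. Detection used Eu-TK antibody and SA-XL665 in EDTA buffer; activity normalized to DMSO and reference inhibitor, IC50 by logistic fit.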
Chain of Human KDR (residues 790-1356) (P35968 790-1356): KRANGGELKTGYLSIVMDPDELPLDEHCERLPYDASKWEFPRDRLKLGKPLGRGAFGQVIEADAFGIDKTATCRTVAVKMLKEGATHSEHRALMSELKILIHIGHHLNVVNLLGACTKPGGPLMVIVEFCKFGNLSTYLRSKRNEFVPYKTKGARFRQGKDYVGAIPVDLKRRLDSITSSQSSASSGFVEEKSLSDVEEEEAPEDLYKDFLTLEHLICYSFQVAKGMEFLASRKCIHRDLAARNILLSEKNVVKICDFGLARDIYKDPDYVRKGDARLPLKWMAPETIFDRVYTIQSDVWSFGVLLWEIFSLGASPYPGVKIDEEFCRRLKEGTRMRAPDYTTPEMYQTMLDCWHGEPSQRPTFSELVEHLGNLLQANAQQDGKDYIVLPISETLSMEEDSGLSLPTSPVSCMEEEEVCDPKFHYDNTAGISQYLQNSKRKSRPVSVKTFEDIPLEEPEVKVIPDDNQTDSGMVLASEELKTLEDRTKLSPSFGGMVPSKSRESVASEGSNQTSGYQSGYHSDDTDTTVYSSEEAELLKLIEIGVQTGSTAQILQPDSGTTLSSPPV

Test [4] addresses KDR (phospho-KDR, VEGF165-stimulated HUVEC cells) (Homo sapiens (Human), UniProt P35968). Kind of test: KDR autophosphorylation ELISA in HUVEC cells (Example G). Format: cell-based. The following applies: cellular activity; KDR autophosphorylation ELISA in HUVEC cells. The gist of the method: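 Read-out: phospho-KDR in cell lysates by DuoSet IC ELISA, normalised between VEGF-stimulated DMSO wells (100%) and unstimulated wells (0%). Human endothelial cells were starved overnight in serum-free medium, exposed to compound for 1 h, and then pulsed with 100 ng/mL VEGF165 for 5 min.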
On the technique in general: In an ELISA, binding on a coated surface is turned into a signal by an enzyme label.

In general, IC50 refers to the midpoint of a concentration-inhibition curve.

Chain of KDR (phospho-KDR, VEGF165-stimulated HUVEC cells) (P35968 20-1356): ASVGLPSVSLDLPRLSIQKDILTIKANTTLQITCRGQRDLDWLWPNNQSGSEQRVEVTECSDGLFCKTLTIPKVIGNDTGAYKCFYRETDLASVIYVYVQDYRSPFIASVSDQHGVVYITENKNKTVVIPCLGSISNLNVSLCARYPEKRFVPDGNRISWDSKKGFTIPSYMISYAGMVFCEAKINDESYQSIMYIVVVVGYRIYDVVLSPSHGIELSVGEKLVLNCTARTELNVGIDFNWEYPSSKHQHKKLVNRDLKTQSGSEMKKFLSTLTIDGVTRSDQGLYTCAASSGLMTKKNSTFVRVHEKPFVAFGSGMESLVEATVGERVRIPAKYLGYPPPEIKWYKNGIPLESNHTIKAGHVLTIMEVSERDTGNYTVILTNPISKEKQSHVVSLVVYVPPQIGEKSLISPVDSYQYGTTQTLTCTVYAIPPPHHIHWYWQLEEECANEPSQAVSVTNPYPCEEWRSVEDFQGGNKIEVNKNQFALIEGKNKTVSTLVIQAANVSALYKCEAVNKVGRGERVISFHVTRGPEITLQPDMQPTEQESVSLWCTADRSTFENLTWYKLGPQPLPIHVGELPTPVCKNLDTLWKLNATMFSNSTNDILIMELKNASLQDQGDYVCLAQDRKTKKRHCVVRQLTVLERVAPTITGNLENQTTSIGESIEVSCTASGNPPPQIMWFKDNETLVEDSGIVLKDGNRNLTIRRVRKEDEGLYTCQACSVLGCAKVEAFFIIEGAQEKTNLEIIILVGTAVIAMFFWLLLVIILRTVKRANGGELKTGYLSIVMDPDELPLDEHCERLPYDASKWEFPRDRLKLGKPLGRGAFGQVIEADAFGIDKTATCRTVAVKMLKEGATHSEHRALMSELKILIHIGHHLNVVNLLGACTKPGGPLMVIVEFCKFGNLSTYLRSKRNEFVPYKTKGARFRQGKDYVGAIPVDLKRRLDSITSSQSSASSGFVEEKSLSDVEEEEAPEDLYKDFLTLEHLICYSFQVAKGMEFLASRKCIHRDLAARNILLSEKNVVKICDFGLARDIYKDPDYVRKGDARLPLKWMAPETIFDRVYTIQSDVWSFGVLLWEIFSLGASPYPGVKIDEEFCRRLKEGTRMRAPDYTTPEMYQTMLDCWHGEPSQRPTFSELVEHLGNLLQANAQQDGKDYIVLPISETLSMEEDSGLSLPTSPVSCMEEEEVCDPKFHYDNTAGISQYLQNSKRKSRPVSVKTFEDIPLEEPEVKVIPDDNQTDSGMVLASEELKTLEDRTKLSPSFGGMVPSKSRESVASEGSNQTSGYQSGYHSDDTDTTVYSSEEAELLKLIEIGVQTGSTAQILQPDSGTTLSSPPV
Chain of Human MER (residues 528-999) (Q12866 528-999): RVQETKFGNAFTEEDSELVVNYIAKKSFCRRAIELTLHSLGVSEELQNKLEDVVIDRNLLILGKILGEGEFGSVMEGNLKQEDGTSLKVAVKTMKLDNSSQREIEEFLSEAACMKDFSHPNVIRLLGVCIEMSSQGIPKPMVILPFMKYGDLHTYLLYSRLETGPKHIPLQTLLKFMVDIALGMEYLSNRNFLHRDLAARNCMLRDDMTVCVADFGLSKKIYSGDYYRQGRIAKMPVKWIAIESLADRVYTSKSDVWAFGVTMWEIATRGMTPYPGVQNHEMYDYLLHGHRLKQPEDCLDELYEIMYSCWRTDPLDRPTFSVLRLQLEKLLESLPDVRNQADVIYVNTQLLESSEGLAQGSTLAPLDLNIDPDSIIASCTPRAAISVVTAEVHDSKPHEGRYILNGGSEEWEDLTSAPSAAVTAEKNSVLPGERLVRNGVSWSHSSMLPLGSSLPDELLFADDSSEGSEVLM

For the compound `COc1ccc2nccc(Oc3ccc(NC(=O)c4c(C)nc(C)c(-c5ccc(F)cc5C)c4O)cc3F)c2n1` [Compound 70, N-[3-Fluoro-4-[(6-methoxy-1,5-naphthyridin-4-yl)oxy]phenyl]-5-(4-fluoro-2-methylphenyl)-4-hydroxy-2,6-dimethylpyridine-3-carboxamide], the IC50 in test [1] was under 0.1 µM; in test [2], under 0.1 µM; in test [3] it was 0.1 to 0.3 µM; in test [4], under 0.1 µM.

With `C=Cc1cc2nccc(Oc3ccc(NC(=O)c4cnc(C)c(-c5ccc(F)cc5C)c4O)cc3F)c2nc1OC` [Compound 423, N-[4-[(7-ethenyl-6-methoxy-1,5-naphthyridin-4-yl)oxy]-3-fluorophenyl]-5-(4-fluoro-2-methylphenyl)-4-hydroxy-6-methylpyridine-3-carboxamide], the IC50 in test [1] was 0.1 to 0.3 µM; in test [2], under 0.1 µM; in test [3] it was over 0.3 µM; in test [4], under 0.1 µM.

Regarding `COc1ccc2nccc(Oc3ccc(NC(=O)c4c(C)nc(C)c(-c5ccc(F)cc5)c4O)cc3F)c2n1` [Compound 67, N-[3-Fluoro-4-[(6-methoxy-1,5-naphthyridin-4-yl)oxy]phenyl]-5-(4-fluorophenyl)-4-hydroxy-2,6-dimethylpyridine-3-carboxamide], the IC50 in test [1], in test [2], in test [3] and in test [4] was under 0.1 µM each time.

As for `COc1cc2nccc(Oc3ccc(NC(=O)c4c(C)nc(OC)c(-c5ccc(F)cc5)c4O)cc3F)c2nc1OC` [Compound 442, N-[4-[(6,7-dimethoxy-1,5-naphthyridin-4-yl)oxy]-3-fluorophenyl]-5-(4-fluorophenyl)-4-hydroxy-6-methoxy-2-methylpyridine-3-carboxamide], the concentration for half-maximal inhibition (IC50) in test [1], in test [2], in test [3] and in test [4] was under 0.1 µM each time.

For `COc1cc2nccc(Oc3ccc(NC(=O)c4cn(C)c(C)c(-c5ccc(F)cc5C)c4=O)cc3F)c2nc1OC` [Compound 75, N-[4-[(6,7-Dimethoxy-1,5-naphthyridin-4-yl)oxy]-3-fluorophenyl]-5-(4-fluoro-2-methylphenyl)-1,6-dimethyl-4-oxopyridine-3-carboxamide], the half-inhibitory concentration (IC50) in test [1] is under 0.1 µM; in test [2], under 0.1 µM; in test [3], 0.1 to 0.3 µM; in test [4], under 0.1 µM.

For the compound `COc1cc2nccc(Oc3ccc(NC(=O)c4c(C)nc(O)c(-c5ccc(F)cc5)c4O)cc3F)c2nc1OC` [Compound 443, N-[4-[(6,7-dimethoxy-1,5-naphthyridin-4-yl)oxy]-3-fluorophenyl]-5-(4-fluorophenyl)-4,6-dihydroxy-2-methylpyridine-3-carboxamide], the half-inhibitory concentration (IC50) in test [1] is under 0.1 µM; in test [2] it was under 0.1 µM; in test [3] it was under 0.1 µM; in test [4], over 0.3 µM.

`CCn1cc(-c2ccc(F)cc2)c(=O)c(C(=O)Nc2ccc(Oc3ccnc4cc(OC)c(OC)nc34)c(F)c2)c1C` [Compound 82, N-[4-[(6,7-Dimethoxy-1,5-naphthyridin-4-yl)oxy]-3-fluorophenyl]-1-ethyl-5-(4-fluorophenyl)-2-methyl-4-oxopyridine-3-carboxamide]: the IC50 in test [1] was under 0.1 µM; in test [2] it was under 0.1 µM; in test [3], 0.1 to 0.3 µM; in test [4], 0.1 to 0.3 µM.

Turning to `COCCOc1nc2c(Oc3ccc(NC(=O)c4cnc(C)c(-c5ccc(F)cc5)c4O)cc3F)ccnc2cc1OC` [Compound 68, N-[3-Fluoro-4-[[7-methoxy-6-(2-methoxyethoxy)-1,5-naphthyridin-4-yl]oxy]phenyl]-5-(4-fluorophenyl)-4-hydroxy-6-methylpyridine-3-carboxamide], the half-inhibitory concentration (IC50) in test [1], in test [2], in test [3] and in test [4] was under 0.1 µM each time.

`CCn1cc(C(=O)Nc2ccc(Oc3ccnc4cc(OC)c(OC)nc34)c(F)c2)c(=O)c(-c2ccc(F)cc2)c1C` [Compound 63, N-[4-[(6,7-Dimethoxy-1,5-naphthyridin-4-yl)oxy]-3-fluorophenyl]-1-ethyl-5-(4-fluorophenyl)-6-methyl-4-oxopyridine-3-carboxamide]: the IC50 in test [1], in test [2], in test [3] and in test [4] was under 0.1 µM throughout.

For the compound `COc1ccc2nccc(Oc3ccc(NC(=O)c4n[nH]c(C)c(-c5ccc(F)cc5)c4=O)cc3F)c2n1` [Compound 89, N-[3-Fluoro-4-[(6-methoxy-1,5-naphthyridin-4-yl)oxy]phenyl]-5-(4-fluorophenyl)-6-methyl-4-oxo-1H-pyridazine-3-carboxamide], the IC50 in test [1], in test [2], in test [3] and in test [4] was under 0.1 µM throughout.

For `COc1cnc2c(Oc3ccc(NC(=O)c4c(C)nc(C)c(-c5ccc(F)cc5)c4O)cc3F)ccnc2c1` [Compound 66, N-[3-Fluoro-4-[(7-methoxy-1,5-naphthyridin-4-yl)oxy]phenyl]-5-(4-fluorophenyl)-4-hydroxy-2,6-dimethylpyridine-3-carboxamide], the half-inhibitory concentration (IC50) in test [1], in test [2], in test [3] and in test [4] was under 0.1 µM in each case.

Regarding `COc1cc2nccc(Oc3ccc(NC(=O)c4cn(C)c(CF)c(-c5ccc(F)cc5)c4=O)cc3F)c2nc1OC` [Compound 73, N-[4-[(6,7-Dimethoxy-1,5-naphthyridin-4-yl)oxy]-3-fluorophenyl]-6-(fluoromethyl)-5-(4-fluorophenyl)-1-methyl-4-oxopyridine-3-carboxamide], the IC50 was under 0.1 µM in test [1], under 0.1 µM in test [2], 0.1 to 0.3 µM in test [3] and under 0.1 µM in test [4].

As to `CCOc1c(-c2ccc(F)cc2)cnc(C)c1C(=O)Nc1ccc(Oc2ccnc3cc(OC)c(OC)nc23)c(F)c1` [Compound 403, N-[4-[(6,7-dimethoxy-1,5-naphthyridin-4-yl)oxy]-3-fluorophenyl]-4-ethoxy-5-(4-fluorophenyl)-2-methylpyridine-3-carboxamide], the IC50 was 0.1 to 0.3 µM in test [1], under 0.1 µM in test [2], over 0.3 µM in test [3] and 0.1 to 0.3 µM in test [4].

Consider `COc1cc2nccc(Oc3ccc(NC(=O)c4cn(C)c(C)c(-c5ccc(F)cc5)c4=O)cc3)c2nc1OC` [Compound 65, N-[4-[(6,7-Dimethoxy-1,5-naphthyridin-4-yl)oxy]phenyl]-5-(4-fluorophenyl)-1,6-dimethyl-4-oxopyridine-3-carboxamide], for which the half-inhibitory concentration (IC50) in test [1], in test [2], in test [3] and in test [4] was under 0.1 µM each time.

In the case of `CCc1cc2nccc(Oc3ccc(NC(=O)c4cnc(C)c(-c5ccc(F)cc5C)c4O)cc3F)c2nc1OC` [Compound 421, N-[4-[(7-ethyl-6-methoxy-1,5-naphthyridin-4-yl)oxy]-3-fluorophenyl]-5-(4-fluoro-2-methylphenyl)-4-hydroxy-6-methylpyridine-3-carboxamide], the IC50 in test [1] was 0.1 to 0.3 µM; in test [2], under 0.1 µM; in test [3], over 0.3 µM; in test [4] it was under 0.1 µM.

Take `COc1cc2nccc(Oc3ccc(NC(=O)c4n[nH]c(C)c(-c5ccc(F)cc5C)c4=O)cc3F)c2nc1OC` [Compound 90, N-[4-[(6,7-Dimethoxy-1,5-naphthyridin-4-yl)oxy]-3-fluorophenyl]-5-(4-fluoro-2-methylphenyl)-6-methyl-4-oxo-1H-pyridazine-3-carboxamide]: the IC50 in test [1], in test [2], in test [3] and in test [4] was under 0.1 µM throughout.

`COc1cc2nccc(Oc3ccc(NC(=O)c4cn(C5CC5)c(C)c(-c5ccc(F)cc5)c4=O)cc3F)c2nc1OC` [Compound 433, 1-cyclopropyl-N-[4-[(6,7-dimethoxy-1,5-naphthyridin-4-yl)oxy]-3-fluorophenyl]-5-(4-fluorophenyl)-6-methyl-4-oxopyridine-3-carboxamide]: the IC50 in test [1] was under 0.1 µM; in test [2], under 0.1 µM; in test [3], over 0.3 µM; in test [4], over 0.3 µM.

Regarding `COc1cc2nccc(Oc3ccc(NC(=O)c4cn(C)c(C#N)c(-c5ccc(F)cc5)c4=O)cc3F)c2nc1OC` [Compound 77, 6-Cyano-N-[4-[(6,7-dimethoxy-1,5-naphthyridin-4-yl)oxy]-3-fluorophenyl]-5-(4-fluorophenyl)-1-methyl-4-oxopyridine-3-carboxamide], the IC50 was under 0.1 µM in test [1], under 0.1 µM in test [2], over 0.3 µM in test [3] and over 0.3 µM in test [4].
